Experimental data reported in patent publication US20090036363A1, “Peptides as cell penetrating carriers” (priority 2004, published 2009).
Ends that are not written are not given here.

How the values were obtained:
Format in all cases: cell-based, human
[1] = tested on: HeLa cells; assay: Peptides toxicity assay (MTT assay), HeLa viability and proliferation; details: for cytotoxicity (result in words): MTT staining, 24 h incubation with HeLa cells, concentrations up to 1000 μM (FIG. 3A, 3B)
Procedure: (§1) HeLa viability and proliferation in the presence of peptides was tested using a 3-(4,5-dimethylthiazol-2-yl)-2,5-diphenyltetrazolium bromide (MTT) assay.
(§2) (cf. “MTT-cell proliferation assay” Cell Biology: A Laboratory Handbook, Academic Press, 1998, Second Ed. vol.1; Y. Liu et al., “Mechanism of cellular 3-(4,5-dimethylthiazol-2-yl)-2,5-diphenyltetrazolium bromide (MTT) reduction”, J. Neurochem. 1997 vol. 69 pp. 581-93).
(§3) For each assay 7×10^3 cells/cm^2 were seeded on a 96-well plate (Nange Nunc) (100 μl/hole) and cultured for 24 h. In order to avoid saturation in cell growth after 24 h of peptide incubation, 7×10^3 cells/cm^2 were used in the proliferation measurement (instead of 21.4×10^3 cells/cm^2 seeded in previous experiments). After complete adhesion to the plate, the culture medium was discarded. Peptides were added at growing concentrations of 50, 100, 500, and 1000 μM. The cells were incubated for 3 h or 24 h at 37° C. under 5% CO2 atmosphere. MTT was added 2 h before the final incubation time, i.e., after 1 h for the 3 h incubation time and after 22 h for the 24 h incubation time at a final concentration per hole of 0.5 mg/ml. The cells with peptide and MTT were incubated for a further 2 h and then the medium was discarded by aspiration. Isopropanol was added to dissolve formazan, a dark blue coloured crystal observed in the wells. Absorbance was measured at λ=570 nm, 30 min after the addition of isopropanol. The cell viability was expressed as a percent ratio of cells treated with peptide against cells untreated used as control.

[2] = as above; details: human, HeLa cells, MTT, 24 h incubation, read-out: cell viability; for viability at 24 h, 50 µM: peptide at 50 μM (FIG. 3B); for viability at 24 h, 500 µM: peptide at 500 μM (FIG. 3B)
Procedure: as §1, §2, §3

[3] = tested on: HeLa cells; assay: Microplate fluorimeter reader assay (cellular uptake of carboxyfluoresceinated peptides)
Procedure: Comparative properties of labelled peptides for translocation through the cell membrane were checked with HeLa human cell line. First, the extent of the uptake of the monomers, dimers and trimers at 50 μM concentration in HeLa cells was quantified using a fluorescence microplate reader assay. A dose-response analysis was then undertaken, incubating HeLa cells with the peptides at different concentrations. The cellular uptake of the new peptides was also studied by confocal laser scanning microscopy (CLSM).
HeLa cells were obtained from ATCC. They were maintained in DMEM ([…]) culture medium (Biological Industries) containing 10% Fetal Calf Serum (FCS), 2 mM glutamine, 50 u/ml penicillin and […] streptomycin. For confocal microscopy experiments, exponentially growing HeLa cells were detached from the culture flasks using a trypsin-0.25% EDTA solution and the cell suspension was seeded at a concentration of 21.4×10^3 cells/cm^2 onto glass coverslips or onto 8-well Lab-Teck™ chambered coverglass or on 96-well plate (Nalge Nunc International). Experiments were carried out 24 h later, when the confluence was about 60-70%. The carboxyfluoresceinated compounds were dissolved in PBS and sterilized with 0.22 μm filters (Millex-GV, PVDF, Durapore, Millipore). The peptides and 5(6)-carboxyfluorescein stock solutions were diluted in the cell culture medium. Non-adherent cells were washed away and attached cells were incubated at 37° C. in CO2 atmosphere in DMEM medium with a known concentration of peptides for 3 h.
For each assay, 21.4×10^3 cells/cm^2 were seeded and cultured for 24 h. After complete adhesion to the plate, the culture medium was changed. […] The measurement of fluorescence emitted was carried out after 30 min incubation with lysis buffer in a FL600 Microplate Fluorescence Reader (Bio-Tek). Fluorescence was measured at a λexcitation=485/20 nm and a λemission=530/25 nm. A triplicate of each peptide or carboxyfluorescein concentration was performed and the fluorescence emitted for the blanks (cells with culture medium and without peptides) was subtracted. […]

## CC[C@H](C)[C@H](NC(=O)[C@H](CCCCN)NC(=O)[C@@H](NC(=O)[C@H](CCC(N)=O)NC(=O)[C@@H](N)CCCNC(=N)N)[C@@H](C)CC)C(=O)N[C@@H](Cc1c[nH]c2ccccc12)C(=O)N[C@@H](Cc1ccccc1)C(=O)N[C@@H](CCC(N)=O)C(=O)N[C@@H](CC(N)=O)C(=O)N[C@@H](CCCNC(=N)N)C(=O)N[C@@H](CCCNC(=N)N)C(=O)N[C@@H](CCSC)C(=O)N[C@@H](CCCCN)C(=O)N[C@@H](Cc1c[nH]c2ccccc12)C(=O)N[C@@H](CCCCN)C(=O)N[C@@H](CCCCN)C(N)=O [Antp, (Arg-Gln-Ile-Lys-Ile-Trp-Phe-Gln-Asn-Arg-Arg-Met-Lys-Trp-Lys-Lys)-NH2]
[1]
  concentration at which cytotoxic: 50 µM

## CC[C@H](C)[C@H](NC(=O)[C@H](CCCCN)NC(=O)[C@@H](NC(=O)[C@H](CCC(N)=O)NC(=O)[C@H](CCCNC(=N)N)NC(=O)c1ccc2c(c1)C(=O)OC21c2ccc(O)cc2Oc2cc(O)ccc21)[C@@H](C)CC)C(=O)N[C@@H](Cc1c[nH]c2ccccc12)C(=O)N[C@@H](Cc1ccccc1)C(=O)N[C@@H](CCC(N)=O)C(=O)N[C@@H](CC(N)=O)C(=O)N[C@@H](CCCNC(=N)N)C(=O)N[C@@H](CCCNC(=N)N)C(=O)N[C@@H](CCSC)C(=O)N[C@@H](CCCCN)C(=O)N[C@@H](Cc1c[nH]c2ccccc12)C(=O)N[C@@H](CCCCN)C(=O)N[C@@H](CCCCN)C(N)=O [CF-Antp-NH2]
[2]
  viability at 24 h, 50 µM: 75%
  viability at 24 h, 500 µM: 11%
[1]
  cytotoxicity (result in words): cytotoxic at relatively low concentrations

## N=C(N)NCCC[C@H](NC(=O)[C@H](CCCNC(=N)N)NC(=O)[C@H](CCCNC(=N)N)NC(=O)[C@H](CCC(N)=O)NC(=O)[C@H](CCCNC(=N)N)NC(=O)[C@H](CCCNC(=N)N)NC(=O)[C@H](CCCCN)NC(=O)[C@H](CCCCN)NC(=O)[C@H](CCCNC(=N)N)NC(=O)c1ccc2c(c1)C(=O)OC21c2ccc(O)cc2Oc2cc(O)ccc21)C(N)=O [CF-Tat-NH2]
[2]
  viability at 24 h, 50 µM: 64%
  viability at 24 h, 500 µM: 40%
[1]
  cytotoxicity (result in words): cytotoxic at relatively low concentrations

## (Arg-Lys-Lys-Arg-Arg-Gln-Arg-Arg-Arg)-NH2 (RKKRRQRRR-NH2) [Tat]
[1]
  concentration at which cytotoxic: 50 µM

## CF-(Val-Arg-Leu-Pro-Pro-Pro)3
[3]; HeLa cells incubated 3 h at 50 μM, X=Arg and His, n=1-3 (FIG. 2A)
  fluorescence emitted (uptake) compared with the other CF-(Val-X-Leu-Pro-Pro-Pro)n peptides: higher fluorescence intensity
[3]; HeLa cells, relative to CF-Antp-NH2
  degree of internalization measured against CF-Antp-NH2: 20 times lower
[3]; HeLa cells, relative to CF-Tat-NH2
  degree of internalization measured against CF-Tat-NH2: 15 times lower
